Assay results: ChEMBL document CHEMBL3885881, “DrugMatrix”

Organism: Rattus norvegicus
Experiment: DrugMatrix - Regimen: Daily Repeat
Type: toxicity, organism-based, Sprague-Dawley
Design: regimen Daily Repeat, gender Male, age 6-8 weeks
Conditions: in vivo, po, route oral GAVAGE, vehicle .5 % CMC; for ABSOLUTE BASOPHIL / ABSOLUTE EOSINOPHIL / ABSOLUTE LYMPHOCYTE / ABSOLUTE MONOCYTE / ABSOLUTE SEGMENTED NEUTROPHIL / BASOPHIL / EOSINOPHIL / ERYTHROCYTE COUNT / HEMATOCRIT / HEMOGLOBIN / LEUKOCYTE COUNT / LYMPHOCYTE / MEAN CORPUSCULAR HEMOGLOBIN / MEAN CORPUSCULAR HEMOGLOBIN CONCENTRATION / MEAN CORPUSCULAR VOLUME / MONOCYTE / NEUTROPHIL / NUCLEATED RED BLOOD CELLS / PLATELET COUNT: tissue Blood; for ALANINE AMINOTRANSFERASE / ALBUMIN / ALKALINE PHOSPHATASE / ASPARTATE AMINOTRANSFERASE / BLOOD UREA NITROGEN / CARBON DIOXIDE / CHLORIDE / CHOLESTEROL / CREATINE PHOSPHOKINASE / CREATININE / GLUCOSE / LACTATE DEHYDROGENASE / LIPASE / PHOSPHORUS / POTASSIUM / SODIUM / TOTAL BILIRUBIN / TOTAL PROTEIN / URIC ACID: tissue Plasma
[1] = 15 mg/kg, 72 h, dose level Low, time 3 day
[2] = 15 mg/kg, 120 h, dose level Low, time 5 day
[3] = 2000 mg/kg, 72 h, dose level High, time 3 day
[4] = 2000 mg/kg, 120 h, dose level High, time 5 day

Structure (SMILES): C[C@]12CCC(=O)C=C1CC[C@@H]1[C@@H]2CC[C@@]2(C)[C@H]1CC[C@]2(C)O [METHYLTESTOSTERONE]
- ABSOLUTE BASOPHIL [1]: 0 CELLS/uL
- ABSOLUTE EOSINOPHIL [1]: 240 CELLS/uL
- ABSOLUTE LYMPHOCYTE [1]: 14115 CELLS/uL
- ABSOLUTE MONOCYTE [1]: 60.67 CELLS/uL
- ABSOLUTE SEGMENTED NEUTROPHIL [1]: 1817.67 CELLS/uL
- BASOPHIL [1]: 0%
- EOSINOPHIL [1]: 1.33%
- ERYTHROCYTE COUNT [1]: 5.48 x10E6/uL
- HEMATOCRIT [1]: 33.23%
- HEMOGLOBIN [1]: 12.9 G/DL
- LEUKOCYTE COUNT [1]: 16.23 x10E3/uL
- LYMPHOCYTE [1]: 87%
- MEAN CORPUSCULAR HEMOGLOBIN [1]: 23.53 pg
- MEAN CORPUSCULAR HEMOGLOBIN CONCENTRATION [1]: 38.8 G/DL
- MEAN CORPUSCULAR VOLUME [1]: 60.73 fL
- MONOCYTE [1]: 0.33%
- NEUTROPHIL [1]: 11.33%
- NUCLEATED RED BLOOD CELLS [1]: 0 /100WBC
- PLATELET COUNT [1]: 1314.67 x10E3/uL
- ALANINE AMINOTRANSFERASE [1]: 47.33 u/L
- ALBUMIN [1]: 4.2 G/DL
- ALKALINE PHOSPHATASE [1]: 275.33 u/L
- ASPARTATE AMINOTRANSFERASE [1]: 99.33 u/L
- BLOOD UREA NITROGEN [1]: 18.67 mg/dL
- CARBON DIOXIDE [1]: 27 mmol/L
- CHLORIDE [1]: 103 MEQ/L
- CHOLESTEROL [1]: 75 mg/dL
- CREATINE PHOSPHOKINASE [1]: 593 u/L
- CREATININE [1]: 0.23 mg/dL
- GLUCOSE [1]: 141 mg/dL
- LACTATE DEHYDROGENASE [1]: 578.33 u/L
- LIPASE [1]: 9 u/L
- PHOSPHORUS [1]: 11.9 mg/dL
- POTASSIUM [1]: 5.93 MEQ/L
- SODIUM [1]: 145.33 MEQ/L
- TOTAL BILIRUBIN [1]: 0.2 mg/dL
- TOTAL PROTEIN [1]: 5.8 G/DL
- URIC ACID [1]: 1.47 mg/dL
- ABSOLUTE BASOPHIL [2]: 0 CELLS/uL
- ABSOLUTE EOSINOPHIL [2]: 157.67 CELLS/uL
- ABSOLUTE LYMPHOCYTE [2]: 14288.33 CELLS/uL
- ABSOLUTE MONOCYTE [2]: 45 CELLS/uL
- ABSOLUTE SEGMENTED NEUTROPHIL [2]: 1275.67 CELLS/uL
- BASOPHIL [2]: 0%
- EOSINOPHIL [2]: 1%
- ERYTHROCYTE COUNT [2]: 5.89 x10E6/uL
- HEMATOCRIT [2]: 35.43%
- HEMOGLOBIN [2]: 13.6 G/DL
- LEUKOCYTE COUNT [2]: 15.77 x10E3/uL
- LYMPHOCYTE [2]: 90.33%
- MEAN CORPUSCULAR HEMOGLOBIN [2]: 23.1 pg
- MEAN CORPUSCULAR HEMOGLOBIN CONCENTRATION [2]: 38.4 G/DL
- MEAN CORPUSCULAR VOLUME [2]: 60.17 fL
- MONOCYTE [2]: 0.33%
- NEUTROPHIL [2]: 8.33%
- NUCLEATED RED BLOOD CELLS [2]: 0 /100WBC
- PLATELET COUNT [2]: 1359 x10E3/uL
- ALANINE AMINOTRANSFERASE [2]: 52.33 u/L
- ALBUMIN [2]: 4.13 G/DL
- ALKALINE PHOSPHATASE [2]: 322.67 u/L
- ASPARTATE AMINOTRANSFERASE [2]: 91 u/L
- BLOOD UREA NITROGEN [2]: 13.67 mg/dL
- CARBON DIOXIDE [2]: 26.67 mmol/L
- CHLORIDE [2]: 103 MEQ/L
- CHOLESTEROL [2]: 77.33 mg/dL
- CREATINE PHOSPHOKINASE [2]: 245 u/L
- CREATININE [2]: 0.17 mg/dL
- GLUCOSE [2]: 149.33 mg/dL
- LACTATE DEHYDROGENASE [2]: 232.33 u/L
- LIPASE [2]: 9.33 u/L
- PHOSPHORUS [2]: 12.6 mg/dL
- POTASSIUM [2]: 6.3 MEQ/L
- SODIUM [2]: 143.83 MEQ/L
- TOTAL BILIRUBIN [2]: 0.17 mg/dL
- TOTAL PROTEIN [2]: 5.87 G/DL
- URIC ACID [2]: 1.73 mg/dL
- ABSOLUTE BASOPHIL [3]: 0 CELLS/uL
- ABSOLUTE EOSINOPHIL [3]: 184 CELLS/uL
- ABSOLUTE LYMPHOCYTE [3]: 15708.67 CELLS/uL
- ABSOLUTE MONOCYTE [3]: 378.67 CELLS/uL
- ABSOLUTE SEGMENTED NEUTROPHIL [3]: 2662 CELLS/uL
- BASOPHIL [3]: 0%
- EOSINOPHIL [3]: 1%
- ERYTHROCYTE COUNT [3]: 6.47 x10E6/uL
- HEMATOCRIT [3]: 38.33%
- HEMOGLOBIN [3]: 14.53 G/DL
- LEUKOCYTE COUNT [3]: 18.93 x10E3/uL
- LYMPHOCYTE [3]: 83%
- MEAN CORPUSCULAR HEMOGLOBIN [3]: 22.53 pg
- MEAN CORPUSCULAR HEMOGLOBIN CONCENTRATION [3]: 37.97 G/DL
- MEAN CORPUSCULAR VOLUME [3]: 59.27 fL
- MONOCYTE [3]: 2%
- NEUTROPHIL [3]: 14%
- NUCLEATED RED BLOOD CELLS [3]: 0 /100WBC
- PLATELET COUNT [3]: 1292 x10E3/uL
- ALANINE AMINOTRANSFERASE [3]: 50.33 u/L
- ALBUMIN [3]: 3.93 G/DL
- ALKALINE PHOSPHATASE [3]: 352.33 u/L
- ASPARTATE AMINOTRANSFERASE [3]: 71.67 u/L
- BLOOD UREA NITROGEN [3]: 13 mg/dL
- CARBON DIOXIDE [3]: 27.67 mmol/L
- CHLORIDE [3]: 101.33 MEQ/L
- CHOLESTEROL [3]: 14.67 mg/dL
- CREATINE PHOSPHOKINASE [3]: 215 u/L
- CREATININE [3]: 0.25 mg/dL
- GLUCOSE [3]: 123.33 mg/dL
- LACTATE DEHYDROGENASE [3]: 352 u/L
- LIPASE [3]: 7.33 u/L
- PHOSPHORUS [3]: 10.83 mg/dL
- POTASSIUM [3]: 6.24 MEQ/L
- SODIUM [3]: 142.83 MEQ/L
- TOTAL BILIRUBIN [3]: 0.5 mg/dL
- TOTAL PROTEIN [3]: 5.53 G/DL
- URIC ACID [3]: 1.17 mg/dL
- ABSOLUTE BASOPHIL [4]: 0 CELLS/uL
- ABSOLUTE EOSINOPHIL [4]: 0 CELLS/uL
- ABSOLUTE LYMPHOCYTE [4]: 14176.33 CELLS/uL
- ABSOLUTE MONOCYTE [4]: 40.33 CELLS/uL
- ABSOLUTE SEGMENTED NEUTROPHIL [4]: 2783.33 CELLS/uL
- BASOPHIL [4]: 0%
- EOSINOPHIL [4]: 0%
- ERYTHROCYTE COUNT [4]: 6.11 x10E6/uL
- HEMATOCRIT [4]: 36.23%
- HEMOGLOBIN [4]: 13.97 G/DL
- LEUKOCYTE COUNT [4]: 17 x10E3/uL
- LYMPHOCYTE [4]: 83%
- MEAN CORPUSCULAR HEMOGLOBIN [4]: 22.9 pg
- MEAN CORPUSCULAR HEMOGLOBIN CONCENTRATION [4]: 38.53 G/DL
- MEAN CORPUSCULAR VOLUME [4]: 59.37 fL
- MONOCYTE [4]: 0.33%
- NEUTROPHIL [4]: 16.67%
- NUCLEATED RED BLOOD CELLS [4]: 0.33 /100WBC
- PLATELET COUNT [4]: 1295.33 x10E3/uL
- ALANINE AMINOTRANSFERASE [4]: 46 u/L
- ALBUMIN [4]: 3.83 G/DL
- ALKALINE PHOSPHATASE [4]: 370 u/L
- ASPARTATE AMINOTRANSFERASE [4]: 60 u/L
- BLOOD UREA NITROGEN [4]: 16.33 mg/dL
- CARBON DIOXIDE [4]: 26 mmol/L
- CHLORIDE [4]: 105 MEQ/L
- CHOLESTEROL [4]: 28.33 mg/dL
- CREATINE PHOSPHOKINASE [4]: 184.33 u/L
- CREATININE [4]: 0.2 mg/dL
- GLUCOSE [4]: 158.33 mg/dL
- LACTATE DEHYDROGENASE [4]: 186.67 u/L
- LIPASE [4]: 7.67 u/L
- PHOSPHORUS [4]: 12.33 mg/dL
- POTASSIUM [4]: 6.29 MEQ/L
- SODIUM [4]: 149.6 MEQ/L
- TOTAL BILIRUBIN [4]: 0.3 mg/dL
- TOTAL PROTEIN [4]: 6.03 G/DL
- URIC ACID [4]: 1.5 mg/dL
